Entries after “also recorded” stand apart in the source; their conditions may differ.
Key:
human FUT3 and FUT6 = assay: Anti-Fut 3/6 immunoblot of Capan 1 cells infected with H. pylori; type: cell-based; conditions: Capan 1 cells pre-treated with H. pylori and 50 nM FNJ for 4 h
Method: Lane A, extract of Capan 1 cells. Lane B, extract of Capan 1 cells pre-treated with H. pylori for 4 h. Lanes C, C′, duplicate independent experiments of extract of Capan 1 cells pre-treated with H. pylori and 50 nM of the α-L-fucosidase inhibitor, FNJ, for 4 h.
L-Fucose is a likely source of utilizable carbon and energy because it is located at the termini of mammalian glycoconjugates. L-Fucose is an abundant component of many host gastric mucosa glycoconjugates (Madrid, et al., J. Histochem. Cytochem 1998, 46:1311-1320) that are constitutively synthesized by host cells. Thus, the “request” from H. pylori to manufacture fucosylated glycans may require the host to activate translation of one or more of its fucosyltransferase proteins.

[1] = tested on: Le^x antigen in H. pylori; assay: Anti-Le^x immunoblot of H. pylori lysates after co-culture with AGS cells; type: cell-based, Helicobacter pylori; conditions: 100 μM FNJ, DU-152 to DU-157, 12 h, MOI ~400:1
Method: (§1) FIGS. 11A-11D collectively show immunoblot analysis of H. pylori-infected Capan 1 and AGS cells with mouse monoclonal anti-Le^x antigen. Capan 1 and AGS cells were infected with different H. pylori strains (from DU-152 to DU-157) that were clinical isolates from six different patients with duodenal ulcer (DU). PBS represents a negative control in the absence of H. pylori. The co-culture was maintained for 12 h at an MOI of ˜400:1. In the parallel experiments, Capan 1 (11a) and AGS cells (11c) were infected under the same conditions. The effect of α-L-fucosidase was evaluated by addition of 100 μM FNJ to the co-cultures of Capan 1 (11b) and AGS cells (11d) with various H. pylori strains. The bacterial cells were collected and lysed for Le^x analysis.
(§2) The secretion of FUCA2 directly results in the extracellular production of L-fucose residues that are then incorporated into H. pylori. It is important to determine if the L-fucose-related biosynthesis is affected at the same time. […] The H. pylori cell lysates were analyzed by SDS-PAGE 12 h after infection and immunoblotted with a Le^x-specific monoclonal antibody. […] In contrast, Le^x-containing glycoproteins were detected in substantial amounts without FNJ treatment (FIGS. 11A and 11C, corresponding to H. pylori-infected Capan 1 and AGS cells, respectively).

[2] = tested on: Le^x antigen in H. pylori; assay: Anti-Le^x immunoblot of H. pylori lysates after co-culture with Capan 1 cells; type: cell-based, Helicobacter pylori
Method: as §1, §2

[3] = tested on: H. pylori-infected AGS cells; assay: Immunoblot of translocated CagA (adhesion efficiency of H. pylori) in infected AGS cells; type: cell-based, human; conditions: 100 μM FNJ
Method: (§3) FIG. 8A-8D collectively provide immunoblot analysis of epithelial cells infected with H. pylori using mouse monoclonal anti-CagA. Capan 1 and AGS cells were infected with different H. pylori strains, including CagA^+ and CagA^−, and various clinical isolates from patients with gastritis (GS), duodenal ulcer (DU) and gastric cancer (GC). PBS represents the negative control. The co-culture was maintained for 6-8 h at an MOI of ˜200:1. In the parallel experiments, Capan 1 (a) and AGS cells (c) were infected under the same conditions. The effect of α-L-fucosidase was evaluated by addition of 100 μM FNJ to the co-cultures of Capan 1 (b) and AGS cells (d) with various H. pylori strains.
(§4) FIG. 9 illustrates immunoblot analysis of H. pylori-infected epithelial cells with mouse monoclonal anti-CagA. Capan 1 and AGS cells were infected with different H. pylori strains that were clinical isolates from five different patients with duodenal ulcer (DU). PBS was used as a negative control in the absence of H. pylori. The co-culture was maintained for 6-8 h at an MOI of ˜200:1. […] The effect of α-L-fucosidase was evaluated by addition of 100 μM of the α-L-fucosidase inhibitor, FNJ, to co-cultures of Capan 1 (b) and AGS cells (d) with the indicated H. pylori strains. […]
(§5) CagA of H. pylori was the first reported bacterial virulence protein translocated by a type IV secretion system (Stein, et al., Proc. Natl. Acad. Sci. USA 2000, 97:1263-1268). Translocated CagA protein can be detected inside host cells soon after H. pylori attachment. The adhesion efficiency of H. pylori can be thus measured by monitoring the level of translocated CagA inside host cells. […] The epithelial cell lysates were analyzed by SDS-PAGE 6-8 h after infection and immunoblotted with a CagA-specific monoclonal antibody. CagA (˜140 kDa) was detected when mock-transfected Capan 1 cells were infected with each different H. pylori strain (FIG. 7B). Nonetheless, CagA was not detected upon Capan 1-FUCA2 K.D. infection with the different H. pylori strains, with the exception of GS (FIG. 7C). […]

[4] = tested on: H. pylori-infected AGS cells; assay: Transfer of 6-azido-L-fucose from AGS host cells to H. pylori; type: cell-based, human; conditions: 100 μM FNJ
Text: (§6) A considerable proportion of H. pylori in the stomach is located at the epithelial mucosa (Schreiber S, et al. Proc. Natl. Acad. Sci. USA 2004, 101:5024-5029) where there are various fucose-containing oligosaccharides including Lewis antigens. To determine if H. pylori acquires L-fucose from host cells, similar to the interaction between B. thetaiotaomicron and small intestine cells (Hooper, et al. Proc. Natl. Acad. Sci. USA 1999, 96:9833-9838), the click chemistry-based fluorogenic labeling method developed by Wong and coworkers (Sawa M, et al. Proc. Natl. Acad. Sci. USA 2006, 103:12371-12376) was applied to detect fucosylated glycoconjugates. […]
as §5, with “7B).” for “7B). Nonetheless, CagA was not detected upon Capan 1-FUCA2 K.D. infection with the different H. pylori strains, with the exception of GS (FIG. 7C).”

[5] = tested on: H. pylori-infected Capan 1 cells; assay: Immunoblot of translocated CagA (adhesion efficiency of H. pylori) in infected Capan 1 cells; type: cell-based, human; conditions: Capan 1, 100 μM FNJ
Method: as §3, §4, §5

H. pylori = assay: Adherence of H. pylori to host cells on treatment of infected cells; type: cell-based, Helicobacter pylori; conditions: summary statement; host cells not specified
Text: CagA of H. pylori was the first reported bacterial virulence protein translocated by a type IV secretion system (Stein, et al., Proc. Natl. Acad. Sci. USA 2000, 97:1263-1268). Translocated CagA protein can be detected inside host cells soon after H. pylori attachment. The adhesion efficiency of H. pylori can be thus measured by monitoring the level of translocated CagA inside host cells. Four different epithelial cell lines were chosen for the study, namely mock-transfected Capan 1, Capan 1-FUCA2 K.D., Capan 1, and AGS cells. Isogenic vacA (CagA+), cagA (CagA−) mutants, and clinical isolates from patients with gastritis (GS), duodenal ulcer (DU), and gastric cancer (GC) were selected for co-culturing with the four epithelial cell lines. The epithelial cell lysates were analyzed by SDS-PAGE 6-8 h after infection and immunoblotted with a CagA-specific monoclonal antibody. CagA (˜140 kDa) was detected when mock-transfected Capan 1 cells were infected with each different H. pylori strain (FIG. 7B). Nonetheless, CagA was not detected upon Capan 1-FUCA2 K.D. infection with the different H. pylori strains, with the exception of GS (FIG. 7C). […] In contrast, CagA was detected in substantial amounts without FNJ treatment (FIGS. 8A and 8C, corresponding to the results of Capan 1 and AGS cells, respectively).

[6] = tested on: H. pylori-infected Capan 1 cells; assay: Transfer of 6-azido-L-fucose from Capan 1 host cells to H. pylori; type: cell-based, human; conditions: Capan 1, 100 μM FNJ
Text: as §6
as §5, with “7B).” for “7B). Nonetheless, CagA was not detected upon Capan 1-FUCA2 K.D. infection with the different H. pylori strains, with the exception of GS (FIG. 7C).”

[7] = DU strains DU-152, DU-153, DU-154, DU-155, DU-157
[8] = DU- or GC-specific H. pylori strains, 6-8 h, MOI ~200:1
[9] = GS-specific H. pylori strain, 6-8 h

CC1NC(CN)C(O)C(O)C1O (stereo not shown) [FNJ, 1-aminomethyl-1-deoxy-fuconojirimycin]
expression of human FUT3 and FUT6 (human FUT3 and FUT6): decreased substantially | Le^x-expression level in H. pylori [1]: considerably reduce; also recorded: significantly less | Le^x-expression level in H. pylori ([2]; Capan 1, 100 μM FNJ, DU-152 to DU-157, 12 h, MOI ~400:1): considerably reduce; also recorded: significantly less | level of Le^x-containing glycoproteins in H. pylori ([2]; summary statement, host cells not specified): significantly reduced | CagA present in host cells [3, 7]: no longer present | CagA detected in host cells [3, 8]: consistent with those obtained in AGS cells | level of CagA [3, 9]: not affected | transfer of 6-azido-L-fucose from host cells to H. pylori [4]: considerably reduce | CagA present in host cells [5, 7]: no longer present | CagA detected in host cells [5, 8]: no or little CagA was detected | level of CagA [5, 9]: not affected | adherence of H. pylori to host cells (H. pylori): effectively prevented adherence | transfer of 6-azido-L-fucose from host cells to H. pylori [6]: considerably reduce

Source: US8785402B2, “Compositions and assays for treatment and diagnosis of helicobacter pylori infection and conditions” (Academia Sinica, priority 2009, dated 2014)
